Activity calls are given as the source filed them. No cut-off for these calls is given here.

Data set [1] is filed under the species Homo sapiens. Nature of the data set: Inhibition of Ezh1 (Ezh1/EED/SUZ12/AEBP2/RbAP48) (unknown origin) at <5 uM using histone H3 peptide (21 to 44) as substrate in presence of co-factor SAM by LC-MS analysis.
The species named for data set [2] is Homo sapiens. Nature of the data set: Inhibition of PRC2 complex of human full-length N-terminal FLAG-tagged EZH2/EED/SUZ12/AEBP2/RbAp48 expressed in baculovirus expression system at <5 uM using histone H3 peptide (21 to 44) as substrate in presence of co-factor SAM by LC-MS analysis.
In data set [3] the test system is MV4-11. Nature of the data set: Antitumor activity against human MV4-11 cells xenografted in C57BL/6 mouse assessed as reduction in tumor growth at <6 fold 300 mg/kg, po relative to control. It counts as functional. For orientation: In xenograft studies the graft and the host belong to different species.
In data set [4] the target is T1, Histone-arginine methyltransferase CARM1 (Homo sapiens) (UniProt Q86X55).
T1 sequence (whole entry): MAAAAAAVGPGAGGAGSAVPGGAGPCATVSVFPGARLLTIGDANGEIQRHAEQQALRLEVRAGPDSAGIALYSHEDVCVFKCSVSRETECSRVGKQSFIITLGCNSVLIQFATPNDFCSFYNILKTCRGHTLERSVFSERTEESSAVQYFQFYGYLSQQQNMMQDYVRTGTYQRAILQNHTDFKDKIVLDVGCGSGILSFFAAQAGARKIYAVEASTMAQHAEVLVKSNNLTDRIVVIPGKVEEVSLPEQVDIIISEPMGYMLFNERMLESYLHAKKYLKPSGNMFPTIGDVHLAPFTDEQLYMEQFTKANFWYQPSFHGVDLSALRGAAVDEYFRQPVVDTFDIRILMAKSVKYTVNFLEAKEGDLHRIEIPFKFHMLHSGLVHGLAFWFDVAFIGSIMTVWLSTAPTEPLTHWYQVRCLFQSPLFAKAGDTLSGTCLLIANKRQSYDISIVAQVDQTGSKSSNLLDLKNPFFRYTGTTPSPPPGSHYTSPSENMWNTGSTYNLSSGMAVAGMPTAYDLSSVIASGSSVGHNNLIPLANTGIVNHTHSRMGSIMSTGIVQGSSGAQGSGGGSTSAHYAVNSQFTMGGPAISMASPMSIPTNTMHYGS
Put plainly: Inhibition of CARM1 (unknown origin) at <5 uM using histone H3 peptide (1 to 21) as substrate in presence of co-factor SAM by LC-MS analysis.

Data set [5] concerns the target T2, Histone-lysine N-methyltransferase EHMT2 (Homo sapiens) (UniProt Q96KQ7).
T2 sequence (whole entry): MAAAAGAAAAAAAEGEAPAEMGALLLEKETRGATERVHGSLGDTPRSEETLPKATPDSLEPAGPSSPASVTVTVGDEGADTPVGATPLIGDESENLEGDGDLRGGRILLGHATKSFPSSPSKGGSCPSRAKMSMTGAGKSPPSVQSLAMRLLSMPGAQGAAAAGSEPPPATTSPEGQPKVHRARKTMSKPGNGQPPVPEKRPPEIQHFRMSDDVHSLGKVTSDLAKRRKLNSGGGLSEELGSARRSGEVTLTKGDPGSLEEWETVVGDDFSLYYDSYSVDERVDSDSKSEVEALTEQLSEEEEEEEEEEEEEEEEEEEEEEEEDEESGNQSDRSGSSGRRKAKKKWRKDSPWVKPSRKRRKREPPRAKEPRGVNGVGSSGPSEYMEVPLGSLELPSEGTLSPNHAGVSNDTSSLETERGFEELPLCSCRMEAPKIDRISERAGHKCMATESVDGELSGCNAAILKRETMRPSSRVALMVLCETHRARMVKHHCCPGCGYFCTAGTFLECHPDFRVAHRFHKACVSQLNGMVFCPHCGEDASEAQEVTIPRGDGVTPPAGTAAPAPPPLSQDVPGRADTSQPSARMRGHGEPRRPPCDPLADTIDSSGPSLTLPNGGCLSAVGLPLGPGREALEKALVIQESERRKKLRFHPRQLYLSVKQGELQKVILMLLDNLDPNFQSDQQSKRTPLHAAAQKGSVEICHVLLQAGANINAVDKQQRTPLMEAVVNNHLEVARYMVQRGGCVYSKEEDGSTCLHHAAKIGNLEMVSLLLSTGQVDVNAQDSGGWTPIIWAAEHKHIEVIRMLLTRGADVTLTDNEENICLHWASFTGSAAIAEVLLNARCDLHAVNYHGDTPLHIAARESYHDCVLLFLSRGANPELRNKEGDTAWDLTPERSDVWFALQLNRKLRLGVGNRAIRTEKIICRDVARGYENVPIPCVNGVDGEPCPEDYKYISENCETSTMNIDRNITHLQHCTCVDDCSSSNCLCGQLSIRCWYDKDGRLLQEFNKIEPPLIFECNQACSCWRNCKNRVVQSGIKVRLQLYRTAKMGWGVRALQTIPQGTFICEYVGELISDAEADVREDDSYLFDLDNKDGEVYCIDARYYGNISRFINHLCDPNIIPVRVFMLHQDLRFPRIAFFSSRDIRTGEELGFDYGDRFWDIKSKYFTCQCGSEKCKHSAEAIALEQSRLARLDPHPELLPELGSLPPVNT
Nature of the data set: Inhibition of G9a (unknown origin) at <5 uM using histone H3 peptide (1 to 21) as substrate in presence of co-factor SAM by LC-MS analysis.

Data set [6] addresses MLL1/ASH2L/RBBP5/WDR5 complex (Homo sapiens) (UniProt P61964+Q03164+Q9UBL3+Q15291). Put plainly: Inhibition of MLL (MLL/ASH2L/RBBP5/WDR5) (unknown origin) at <5 uM using histone H3 peptide (1 to 21) as substrate in presence of co-factor SAM by LC-MS analysis. It counts as protein-complex assay.
Data set [7] concerns Mus musculus. Put plainly: In vivo inhibition of DOT1L in C57BL/6 mouse xenografted with human MV4-11 cells assessed as reduction in HOXA9 gene expression at <6 fold 300 mg/kg, po relative to control. It counts as functional.
In data set [8] the target is Histone-lysine N-methyltransferase SETD2 (Homo sapiens) (UniProt Q9BYW2). Nature of the data set: Inhibition of SETD2 (unknown origin) at <5 uM using histone H3 peptide (21 to 44) as substrate in presence of co-factor SAM by LC-MS analysis.
Data set [9] can be described thus: Drug concentration in C57BL/6 mouse blood at 300 mg/kg, po measured after 24 hrs. It counts as ADME, organism-based. To be noted: read-out: Drug uptake.
A short description of data set [10]: Toxicity in C57BL/6 mouse xenografted with human MV4-11 cells at 300 mg/kg, po. It counts as organism-based. To be noted: in vivo.
Data set [11] can be described thus: Drug concentration in C57BL/6 mouse blood at 300 mg/kg, po administered daily for 7 days. It counts as ADME, organism-based. To be noted: in vivo, 168 h.
In data set [12] the target is Histone-lysine N-methyltransferase, H3 lysine-79 specific (Homo sapiens, UniProt Q8TEK3). Nature of the data set: Binding affinity to DOT1l (unknown origin) assessed as dissociation half life by SPR assay.
In data set [13] the target is Histone-lysine N-methyltransferase SUV39H2 (Homo sapiens) (UniProt Q9H5I1). Nature of the data set: Inhibition of Suv39H2 (unknown origin) at <5 uM using histone H3 peptide (1 to 21) as substrate in presence of co-factor SAM by LC-MS analysis.
Sequence of Histone-lysine N-methyltransferase SUV39H2 (Homo sapiens) (Q9H5I1 whole entry): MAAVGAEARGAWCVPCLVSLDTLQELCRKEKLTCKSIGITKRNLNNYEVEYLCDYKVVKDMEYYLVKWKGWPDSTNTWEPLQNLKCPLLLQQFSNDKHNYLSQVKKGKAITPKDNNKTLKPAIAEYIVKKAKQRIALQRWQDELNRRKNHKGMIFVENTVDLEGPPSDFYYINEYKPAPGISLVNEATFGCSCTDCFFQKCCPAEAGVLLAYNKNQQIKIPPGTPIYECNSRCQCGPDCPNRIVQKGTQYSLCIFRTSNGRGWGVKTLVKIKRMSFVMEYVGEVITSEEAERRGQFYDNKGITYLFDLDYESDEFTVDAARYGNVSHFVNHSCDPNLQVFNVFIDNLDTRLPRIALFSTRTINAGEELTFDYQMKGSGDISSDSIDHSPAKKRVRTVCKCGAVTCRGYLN

Sequence of Histone-lysine N-methyltransferase SETD2 (Homo sapiens) (Q9BYW2 whole entry): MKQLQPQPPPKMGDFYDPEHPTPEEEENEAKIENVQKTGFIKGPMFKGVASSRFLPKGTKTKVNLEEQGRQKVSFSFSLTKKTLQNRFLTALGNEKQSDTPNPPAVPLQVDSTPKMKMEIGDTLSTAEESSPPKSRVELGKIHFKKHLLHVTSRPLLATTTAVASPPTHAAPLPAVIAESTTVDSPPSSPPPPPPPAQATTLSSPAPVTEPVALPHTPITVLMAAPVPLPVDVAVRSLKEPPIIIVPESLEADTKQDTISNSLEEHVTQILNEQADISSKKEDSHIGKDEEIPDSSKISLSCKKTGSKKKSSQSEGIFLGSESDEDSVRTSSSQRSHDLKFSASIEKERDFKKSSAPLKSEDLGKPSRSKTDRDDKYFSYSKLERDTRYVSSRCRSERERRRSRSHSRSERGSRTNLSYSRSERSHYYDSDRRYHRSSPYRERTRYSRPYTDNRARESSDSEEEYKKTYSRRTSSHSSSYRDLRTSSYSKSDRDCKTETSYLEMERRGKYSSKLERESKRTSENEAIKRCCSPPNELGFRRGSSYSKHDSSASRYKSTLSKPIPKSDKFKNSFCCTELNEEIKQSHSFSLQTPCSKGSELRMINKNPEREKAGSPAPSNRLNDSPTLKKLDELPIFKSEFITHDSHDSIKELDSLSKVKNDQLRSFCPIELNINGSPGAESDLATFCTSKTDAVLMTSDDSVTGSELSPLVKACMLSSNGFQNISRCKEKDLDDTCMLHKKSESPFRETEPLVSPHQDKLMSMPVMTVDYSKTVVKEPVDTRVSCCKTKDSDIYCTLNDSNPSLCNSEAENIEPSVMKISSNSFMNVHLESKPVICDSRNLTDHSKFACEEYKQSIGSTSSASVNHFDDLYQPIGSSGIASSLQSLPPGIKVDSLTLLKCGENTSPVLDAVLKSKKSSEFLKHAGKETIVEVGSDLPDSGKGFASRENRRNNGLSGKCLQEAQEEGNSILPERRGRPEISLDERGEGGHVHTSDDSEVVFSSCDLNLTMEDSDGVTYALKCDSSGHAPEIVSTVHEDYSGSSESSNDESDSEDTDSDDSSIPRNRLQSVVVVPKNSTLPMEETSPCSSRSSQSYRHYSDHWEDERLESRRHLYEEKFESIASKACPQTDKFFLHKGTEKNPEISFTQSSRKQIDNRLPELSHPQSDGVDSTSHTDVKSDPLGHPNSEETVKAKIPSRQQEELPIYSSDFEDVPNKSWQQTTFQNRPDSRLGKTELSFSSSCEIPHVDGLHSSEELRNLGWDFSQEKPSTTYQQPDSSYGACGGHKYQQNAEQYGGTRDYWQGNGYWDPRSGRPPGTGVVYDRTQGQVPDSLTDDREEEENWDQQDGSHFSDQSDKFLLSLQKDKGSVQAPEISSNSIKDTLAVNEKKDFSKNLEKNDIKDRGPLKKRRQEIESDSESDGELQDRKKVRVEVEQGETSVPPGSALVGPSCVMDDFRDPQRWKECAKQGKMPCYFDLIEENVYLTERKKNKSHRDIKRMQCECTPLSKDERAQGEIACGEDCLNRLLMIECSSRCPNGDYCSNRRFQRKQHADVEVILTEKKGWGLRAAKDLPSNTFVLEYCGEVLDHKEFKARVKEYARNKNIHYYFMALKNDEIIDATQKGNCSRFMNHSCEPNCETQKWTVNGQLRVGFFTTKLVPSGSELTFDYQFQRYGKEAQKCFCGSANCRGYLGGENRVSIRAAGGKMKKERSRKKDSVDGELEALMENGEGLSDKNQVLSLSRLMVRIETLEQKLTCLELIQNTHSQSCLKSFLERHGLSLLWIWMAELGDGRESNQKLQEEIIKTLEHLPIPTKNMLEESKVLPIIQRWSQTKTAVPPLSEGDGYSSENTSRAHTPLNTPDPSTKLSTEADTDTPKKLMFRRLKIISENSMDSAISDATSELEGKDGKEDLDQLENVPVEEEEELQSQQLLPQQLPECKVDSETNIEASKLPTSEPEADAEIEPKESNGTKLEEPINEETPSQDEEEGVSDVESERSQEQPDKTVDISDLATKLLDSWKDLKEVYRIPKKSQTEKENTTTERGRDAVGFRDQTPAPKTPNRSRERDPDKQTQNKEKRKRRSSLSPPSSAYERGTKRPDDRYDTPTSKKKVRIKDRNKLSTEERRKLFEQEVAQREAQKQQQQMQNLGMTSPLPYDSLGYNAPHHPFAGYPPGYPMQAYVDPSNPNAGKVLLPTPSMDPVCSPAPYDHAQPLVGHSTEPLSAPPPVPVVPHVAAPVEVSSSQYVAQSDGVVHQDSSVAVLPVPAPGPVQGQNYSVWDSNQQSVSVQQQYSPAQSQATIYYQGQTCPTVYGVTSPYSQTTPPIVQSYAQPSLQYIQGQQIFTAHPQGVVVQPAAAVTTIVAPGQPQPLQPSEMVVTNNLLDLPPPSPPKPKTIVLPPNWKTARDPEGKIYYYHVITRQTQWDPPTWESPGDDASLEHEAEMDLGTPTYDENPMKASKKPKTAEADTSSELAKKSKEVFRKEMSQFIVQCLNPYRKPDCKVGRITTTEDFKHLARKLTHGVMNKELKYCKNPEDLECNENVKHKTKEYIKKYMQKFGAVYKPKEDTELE
Sequence of Histone-lysine N-methyltransferase, H3 lysine-79 specific (Q8TEK3 whole entry, looked up): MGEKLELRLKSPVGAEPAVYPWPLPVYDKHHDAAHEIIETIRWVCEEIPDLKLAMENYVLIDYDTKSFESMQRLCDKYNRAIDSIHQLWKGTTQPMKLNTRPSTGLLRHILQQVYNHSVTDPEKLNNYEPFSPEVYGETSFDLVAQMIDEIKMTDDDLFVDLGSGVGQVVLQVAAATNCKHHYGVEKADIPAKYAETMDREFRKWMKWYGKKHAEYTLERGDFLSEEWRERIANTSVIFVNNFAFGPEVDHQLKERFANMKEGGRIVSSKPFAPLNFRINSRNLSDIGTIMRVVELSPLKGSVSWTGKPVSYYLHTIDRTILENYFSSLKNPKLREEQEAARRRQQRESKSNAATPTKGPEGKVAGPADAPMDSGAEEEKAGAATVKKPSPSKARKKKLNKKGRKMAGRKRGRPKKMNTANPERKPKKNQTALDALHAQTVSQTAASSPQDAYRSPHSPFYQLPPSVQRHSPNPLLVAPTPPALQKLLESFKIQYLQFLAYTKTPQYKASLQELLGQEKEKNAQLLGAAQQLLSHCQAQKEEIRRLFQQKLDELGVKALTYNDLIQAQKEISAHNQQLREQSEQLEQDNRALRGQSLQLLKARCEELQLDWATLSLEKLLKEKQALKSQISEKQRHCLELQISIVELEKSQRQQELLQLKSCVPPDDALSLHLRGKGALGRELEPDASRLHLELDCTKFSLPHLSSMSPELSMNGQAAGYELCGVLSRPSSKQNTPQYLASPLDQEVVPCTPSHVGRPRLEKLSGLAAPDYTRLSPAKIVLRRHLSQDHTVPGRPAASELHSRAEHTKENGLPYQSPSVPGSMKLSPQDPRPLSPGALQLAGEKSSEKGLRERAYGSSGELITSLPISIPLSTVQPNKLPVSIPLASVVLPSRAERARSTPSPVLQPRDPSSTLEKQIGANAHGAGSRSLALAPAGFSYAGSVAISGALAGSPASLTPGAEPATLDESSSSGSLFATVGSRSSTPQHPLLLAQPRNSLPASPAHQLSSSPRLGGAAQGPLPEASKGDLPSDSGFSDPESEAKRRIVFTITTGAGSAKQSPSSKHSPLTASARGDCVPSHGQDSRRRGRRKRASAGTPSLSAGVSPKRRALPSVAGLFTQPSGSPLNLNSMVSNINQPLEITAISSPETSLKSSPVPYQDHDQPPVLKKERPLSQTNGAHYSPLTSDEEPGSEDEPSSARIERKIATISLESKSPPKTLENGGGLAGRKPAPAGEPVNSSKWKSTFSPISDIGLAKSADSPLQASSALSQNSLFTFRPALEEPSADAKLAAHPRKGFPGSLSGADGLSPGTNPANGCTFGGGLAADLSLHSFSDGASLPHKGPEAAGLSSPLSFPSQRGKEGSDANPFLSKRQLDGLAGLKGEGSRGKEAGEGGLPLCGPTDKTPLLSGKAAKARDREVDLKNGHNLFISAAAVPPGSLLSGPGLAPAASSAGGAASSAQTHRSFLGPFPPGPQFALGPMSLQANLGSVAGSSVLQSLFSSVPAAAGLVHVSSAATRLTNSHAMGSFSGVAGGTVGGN

Regarding `COc1nc(Nc2cc(S(C)(=O)=O)ccc2N[C@@H](c2cccc3c2OC(F)(F)O3)c2ncccc2Cl)nc(N2CCNCC2)n1`, the inhibition entry in data set [1], in data set [2], in data set [4], in data set [5], in [6] and in [8] was “inactive” in each case. Besides, the inhibition result in data set [13] is “inactive”. Also, the “fold change (FC)” value in data set [3] and in data set [7] was below 0.5 each time. Also, the concentration at 24 h in [9] lay in the range of 4 to 8 µM. Besides, the Activity result in [10] is “Toxic”. The Drug uptake entry in data set [11] is “Active”. Also, the T1/2 in data set [12] was above 5 h.

For the origin of these results see ChEMBL document CHEMBL4406923, “New Potent DOT1L Inhibitors for in Vivo Evaluation in Mouse” (ACS Med Chem Lett, 2019).
